Measurements reported in PMC6013488, “A widely-applicable high-throughput cellular thermal shift assay (CETSA) using split Nano Luciferase” (Scientific Reports, 2018).
Counter-ions that a name gives are not always drawn. Like-named read-outs stand apart in the source and are kept apart here.

Columns and labels:
CDK9-86b = target: T1, CDK9-86b (Homo sapiens, UniProt P50750); experiment: SplitLuc CETSA of CDK9-86b; format: cell-based; conditions: 45 °C for 3.5 min, 96-well PCR plate
T1 construct: Size (a.a., untagged); expressed in transfected cells; host or cells: HEK293T
T1 sequence (P50750 whole entry): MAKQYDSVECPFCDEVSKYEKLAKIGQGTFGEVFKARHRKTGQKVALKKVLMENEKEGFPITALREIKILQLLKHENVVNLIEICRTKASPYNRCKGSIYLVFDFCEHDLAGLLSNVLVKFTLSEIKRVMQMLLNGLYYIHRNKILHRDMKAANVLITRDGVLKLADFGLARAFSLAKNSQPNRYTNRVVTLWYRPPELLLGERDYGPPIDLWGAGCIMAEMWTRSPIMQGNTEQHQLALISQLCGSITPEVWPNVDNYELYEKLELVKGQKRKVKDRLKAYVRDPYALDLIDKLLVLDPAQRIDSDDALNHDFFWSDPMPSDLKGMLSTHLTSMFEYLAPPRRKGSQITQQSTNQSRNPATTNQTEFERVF
Procedure: For CDK9, 2 µg of DNA per well was used. After 24 h (48 h for CDK9), cells were harvested by trypsinization and resuspended at 1 × 10^6 cells/mL (unless otherwise indicated) in CETSA buffer containing DPBS (with CaCl2 and MgCl2) plus 1 g/L glucose, 1X Halt protease inhibitor cocktail (ThermoFisher), and 0.5% DMSO (DMSO was not added for experiments that received subsequent compound and vehicle treatment). For temperature range experiments (without compound or single dose), samples were aliquoted to PCR strips at 30 µL per tube. […] Samples were then heated for 3.5 min using a pre-heated thermal cycler, allowed to equilibrate to room temperature, and 6 µL of 6% NP40 was added to each well. […] 11S (GenScript) and furimazine substrate (from Nano-Glo Luciferase Assay System, Promega) were added, at final concentrations of 100 nM and 0.5X, respectively, and samples were analyzed for luminescence intensity using a ViewLux High-throughput CCD imager (Perkin Elmer) equipped with clear filters.
Cells were transfected and harvested as above (384-well protocol). Cells were dispensed (5 µL cell/well) into 1,536-well white plates (Aurora, cyclic olefin polymer, cat# EWB041000A) using a Multidrop Combi. […] One µL of 6% NP40 was added per well and plates were incubated for 30 min to allow cell lysis followed by addition of 3 µL 11S (final concentration 100 nM) and furimazine substrate. Plates were centrifuged and analyzed for luminescence intensity using a ViewLux reader. For the LDHA and CDK9 screens, a final concentration of 0.5X and 0.25X furimazine was used, respectively. Normalization controls include DMSO and GSK2837808A-treated samples or unheated samples for LDHA and CDK9, respectively. […] Subsequently, 500 pM (final) of 86b was added to the wells, followed by addition of 100 nM 11S and 0.25X furimazine substrate (final).

CDK9/cyclin K = target: T2, CDK9/cyclin K (Homo sapiens, UniProt P50750); experiment: TR-FRET Lanthascreen Eu Kinase Binding assay; conditions: for Curve Class: classifies curves by quality of fit, efficacy and number of asymptotes; for Efficacy: difference between highest and lowest activity across concentration range; for Efficacy / Max Resp: in %
T2 construct: purchased Invitrogen (ThermoFisher) PV4335
T2 sequence (P50750 whole entry): as above
T2 sequence (O75909 whole entry partner): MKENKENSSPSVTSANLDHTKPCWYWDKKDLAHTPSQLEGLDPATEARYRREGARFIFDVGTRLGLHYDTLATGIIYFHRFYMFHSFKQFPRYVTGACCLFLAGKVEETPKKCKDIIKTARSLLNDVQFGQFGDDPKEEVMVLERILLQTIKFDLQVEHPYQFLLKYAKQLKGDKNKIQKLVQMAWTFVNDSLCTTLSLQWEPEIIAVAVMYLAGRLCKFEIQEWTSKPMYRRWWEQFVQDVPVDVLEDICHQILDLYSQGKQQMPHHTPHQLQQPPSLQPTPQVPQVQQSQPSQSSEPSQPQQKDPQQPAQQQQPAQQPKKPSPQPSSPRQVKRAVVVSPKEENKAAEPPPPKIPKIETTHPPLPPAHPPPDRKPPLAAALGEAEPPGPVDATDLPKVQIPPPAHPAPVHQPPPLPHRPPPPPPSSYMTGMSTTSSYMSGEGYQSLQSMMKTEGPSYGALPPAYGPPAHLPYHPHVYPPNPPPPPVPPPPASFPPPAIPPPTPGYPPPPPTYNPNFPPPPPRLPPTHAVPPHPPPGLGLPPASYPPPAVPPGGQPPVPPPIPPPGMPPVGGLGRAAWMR
Source text: The TR-FRET Lanthascreen Eu Kinase Binding assay for CDK9/cyclin K was purchased from ThermoFisher and performed as per manufacturer instructions.

[1] = concentration at which half maximal activity is observed, 7-point qHTS, read-out: AC50
[2] = AC50, concentration at which half maximal activity is observed, 7-point qHTS
[3] = logarithm of AC50, read-out: Log AC50 (converted)

Row | SMILES | stabilization of CDK9-86b in follow-up experiments (CDK9-86b) | Curve Class (CDK9/cyclin K) | Efficacy (CDK9/cyclin K) | Max Resp (CDK9/cyclin K) | AC50 (CDK9/cyclin K; [1]) | AC50 (CDK9/cyclin K; [2]) | AC50 (CDK9/cyclin K; [3])
1 | COc1cc(F)ccc1-c1ncnc(Nc2cccc(C[S+](C)(=N)[O-])c2)n1 (stereo not drawn) [BAY-1143572] | stabilize | -1.2 | -55.3 | -100.3 | – | – | –
2 | CN[C@H]1CCN(C(=O)c2ccc(Nc3ncc(F)c(-c4cnc(C)n4C(C)C)n3)cc2)C1 [AZD-5597] | – | -1.3 | -51.7 | -96.5 | – | – | –
3 | N#Cc1ccnc(Nc2cc(C3CCN(C4COC4)CC3)cc(N3CCC(F)(F)C3)n2)c1 [NCGC00384250-01] | – | -1.2 | -76.1 | -87.1 | 189 nM | – | –
4 | CC(C)Oc1cc(Nc2nc(N[C@@H](C)c3ccc(F)cn3)ncc2Cl)n[nH]1 [AZ 23] | – | -1.2 | -76.1 | -97.4 | – | – | –
5 | COc1ccccc1-c1cc(Nc2cccc(C[S+](N)(=O)[O-])c2)ncn1 [LDC000067] | – | -1.1 | -96.3 | -94.5 | – | – | –
6 | CN(C)c1nc2c(Br)c(Br)c(Br)c(Br)c2[nH]1 [DMAT] | – | -1.1 | -84.2 | -94.6 | – | – | –
7 | Nc1ncnc2c1c(I)cn2[C@@H]1O[C@H](CO)[C@H](O)C1O (stereo partly drawn) [5-Iodotubercidin] | – | -1.1 | -92.5 | -99.1 | – | – | –
8 | CC(C)c1cc(CNc2nc(Nc3cc(C4CC4)[nH]n3)cc(N3CCN(C)CC3)n2)on1 [XL-228] | – | -1.1 | -97.1 | -96.7 | – | – | –
9 | Oc1ccc(-c2ccc(-c3cc(Nc4cccc(CNC5CC5)c4)[nH]n3)cc2)c(O)c1 [TCS-2312] | – | -1.1 | -85.0 | -94.1 | – | – | –
10 | CC[C@@](C)(Nc1ccnc(-c2c[nH]c3ncccc23)n1)C(=O)NCC(F)(F)F [VX-509 (Decernotinib)] | – | -1.1 | -91.7 | -97.1 | – | – | –
11 | Nc1nc(NCCNc2ncc(-n3ccnc3)c(-c3ccc(Cl)cc3Cl)n2)ccc1[N+](=O)[O-] [CHIR98014] | – | -1.1 | -87.0 | -80.6 | – | 134 nM | –
12 | O=C1OC(/C=C/c2ccccc2)=NC/1=C\c1cccnc1 [TC-DAPK 6] | – | -1.2 | -71.2 | -68.2 | – | – | –
13 | O=C(Nc1nc2ccccc2n1CCN1CCOCC1)c1cccc([N+](=O)[O-])c1 [IRAK-1-4 Inhibitor I] | – | -1.2 | -75.6 | – | – | – | –
14 | OCCCNc1cc(-c2ccnc(Nc3cccc(Cl)c3)n2)ccn1 [CGP60474] | – | -1.2 | -56.9 | -98.0 | – | – | –
15 | O=C1NC(=O)/C(=C/c2ccc3nccc(-c4ccncc4)c3c2)S1 [GSK1059615] | – | -1.1 | -89.8 | -91.2 | – | – | –
16 | COc1ccccc1-c1c[nH]c2ncc(-c3cncc(C(=O)N(C)C)c3)cc12 [PPY A] | – | -1.1 | -90.1 | -95.0 | – | – | –
17 | O=C1Cc2c([nH]c3ccc([N+](=O)[O-])cc23)-c2ccccc2N1 [Alsterpaullone] | – | -1.1 | -82.6 | -92.4 | – | – | –
18 | CC1(COc2ccc3c(c2)ncn3-c2ccc3cccc(N4CCC(N)CC4)c3n2)COC1 [CP-868596 (Crenolanib)] | – | -1.1 | -91.6 | -90.2 | – | – | –
19 | CN(c1ncccc1CNc1nc(Nc2ccc3c(c2)CC(=O)N3)ncc1C(F)(F)F)[S+](C)(=O)[O-] [PF-562271] | – | -1.1 | -92.3 | -101.3 | – | – | –
20 | CC(=O)c1cnc2ccc(-c3cc(Cl)c(O)c(Cl)c3)nc2c1N[C@H]1CC[C@H](CN(C)C)CC1 [OTSSP167] | – | -1.1 | -82.5 | -98.5 | – | – | –
21 | Cc1n[nH]c2ccc(-c3cncc(OC[C@@H](N)Cc4ccccc4)c3)cc12 [Compound A-674563, A-674563] | – | -1.1 | -89.8 | -98.7 | – | – | –
22 | Cn1cc(C2=C(c3cn(CCCSC(=N)N)c4ccccc34)C(=O)NC2=O)c2ccccc21 [Ro 31-8220 (mesylate)] | – | -1.3 | -42.0 | -60.6 | – | – | –

Row | SMILES | stabilization of CDK9-86b in follow-up experiments (CDK9-86b) | Curve Class (CDK9/cyclin K) | Efficacy (CDK9/cyclin K) | Max Resp (CDK9/cyclin K) | AC50 (CDK9/cyclin K; [1]) | AC50 (CDK9/cyclin K; [2]) | AC50 (CDK9/cyclin K; [3])
23 | CNC(=O)c1ccc(Nc2ncc(C(F)(F)F)c(NCc3nccnc3N(C)[S+](C)(=O)[O-])n2)cc1 [Defactinib (VS-6063, PF-04554878)] | – | -1.1 | -79.8 | -50.3 | – | – | –
24 | O=[N+]([O-])c1cccc2[nH]c(CNc3nc(N4CCOCC4)nc4c3ncn4-c3ccsc3)nc12 [NCGC00386926-01] | – | -1.2 | -69.1 | -72.6 | – | – | –
25 | CCS(=O)(=O)c1cccc(-c2cc(C(=O)NC3CCN(C)CC3)c(C)c3[nH]c4ncc(C)cc4c23)c1 [TAK-901] | – | -1.1 | -101.2 | -96.3 | – | – | –
26 | Cc1n[nH]c2ccc(-c3cncc(OC[C@@H](N)Cc4c[nH]c5ccccc45)c3)cc12 [Compound A-443654, A-443654] | – | -1.1 | -88.0 | -96.6 | – | – | –
27 | CC(C)c1c2cc(-c3ccnc(N[C@H]4CC[C@H](NC5CCOCC5)CC4)n3)ccc2nn1C [LY2857785] | – | 5 | -28.1 | -89.7 | – | – | –
28 | O=C1Nc2ccccc2/C1=C1/Nc2ccccc2/C1=N\OCCC(O)CO (stereo not drawn) [Indirubin_E8] | – | -1.1 | -83.1 | -81.2 | – | – | –
29 | N[C@H]1CC[C@H](Nc2nc(Nc3ccc(C(=O)N4CCCCC4)cc3)c3ncn(-c4cccc(F)c4)c3n2)CC1 [Purfalcamine] | – | -1.2 | -78.7 | -96.3 | – | – | 631 nM
30 | O=C(Nc1ccnc(NC(=O)C2CC2)c1)c1c(Cl)cccc1Cl [GDC-046] | – | -1.1 | -83.7 | -94.2 | 33.6 nM | – | 31.6 nM
31 | COc1ccc(-c2cc3nccn3c(Nc3ncccc3C(N)=O)n2)cc1OC [BAY 61-3606 (dihydrochloride)] | – | -1.1 | -91.8 | -92.1 | – | – | –
32 | O=C(O)c1ccc(-c2c[nH]c3ncc(-c4ccccc4)cc23)cc1C1CCCC1 [GSK-650394] | – | -1.2 | -77.0 | -89.0 | – | – | –
33 | CN(C)C/C=C/C(=O)Nc1cccc(C(=O)Nc2ccc(Nc3nccc(-c4cccnc4)n3)cc2)c1 [JNK-IN-7] | – | -1.1 | -86.0 | -91.6 | – | – | –
34 | COc1ccc2c(c1)/C(=C/c1cnc[nH]1)C(=O)N2 [SU9516] | – | -1.1 | -93.0 | -90.2 | – | – | –
35 | CC[C@H](CO)Nc1nc(NCc2ccccc2)c2ncn(C(C)C)c2n1 [Roscovitine] | – | -1.1 | -100.3 | -97.7 | – | – | –
36 | O=C(NC1CCNCC1)c1[nH]ncc1NC(=O)c1c(Cl)cccc1Cl [AT7519] | – | 5 | -14.9 | -96.9 | – | – | –
37 | C1=C/COCc2cc(ccc2OCCN2CCCC2)Nc2nccc(n2)-c2cccc(c2)COC/1 [Pacritinib] | – | -1.2 | -64.6 | -95.3 | – | – | –
38 | CCOC(=O)c1c(/C(C#N)=C\N)c2ccc(Cl)c(Cl)c2n1C [KH-CB19] | – | -1.1 | -88.2 | -90.2 | – | 336 nM | –
39 | Cc1cc(CN2CCN(c3c(Br)cnc4[nH]c(-c5ccc(N6CCN(C)CC6)cc5)nc34)CC2)no1 [CCT137690] | – | -1.2 | -77.1 | -79.3 | – | – | –
40 | O=C1NC(=O)/C(=C/c2ccc3nccc(-c4ccncc4)c3c2)S1 [GSK-1059615] | – | -1.2 | -79.9 | -87.0 | – | – | –
41 | O=C1Nc2ccc3ncsc3c2/C1=C/c1c[nH]cn1 [Compound C16, C16] | – | -1.2 | -77.3 | -68.5 | – | – | –
42 | CC(C)CC(=O)Nc1[nH]nc2c1CN(C(=O)C1CCN(C)CC1)C2(C)C [PHA-793887] | – | -1.1 | -87.0 | -99.5 | – | – | –
43 | Cc1ncc(-c2ccnc(Nc3ccc(S(C)(=O)=O)cc3)n2)n1C(C)C [AZD5438] | – | -1.2 | -75.7 | -98.3 | – | – | –
